Data taken from patent US9302999B2, “Substituted triazoles as herbicides” (E. I. DU PONT DE NEMOURS AND COMPANY, priority 2012, dated 2016).

Assays:
Waterhemp = assay: Test C preemergence: waterhemp; assay type: in vivo, Amaranthus rudis; details: scale 0 to 100, 0 no effect, 100 complete control
[1] = system: oat, wild (wild oat, Avena fatua); assay: Test D pre-/postemergence: oat, wild; assay type: in vivo
Summary of the method: (§1)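 Visual 0–100 rating versus untreated controls (0 no effect, 100 complete control), taken 14 to 21 days after treatment in a controlled growth environment. Preemergence: silt loam soil. Postemergence: peat moss/vermiculite medium, plants 2 to 18 cm, 1- to 4-leaf stage. Solvent mixture with surfactant.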

[2] = system: foxtail, green (green foxtail, Setaria viridis); assay: Test D pre-/postemergence: foxtail, green; assay type: in vivo
Summary of the method: as §1

corn (Zea mays) = assay: Test F pre-/postemergence: corn; assay type: in vivo; details: Preemergence
Summary of the method: (§2)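 Visual response scores, 0 meaning no effect and 100 complete control, were assigned against untreated controls 14 to 21 days after treatment. Test chemicals in a surfactant-containing non-phytotoxic solvent were applied preemergence to seeded silt loam soil or postemergence to 2–18 cm plants in peat-based medium.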

[3] = system: mustard, wild (wild mustard, Sinapis arvensis); assay: Test D pre-/postemergence: mustard, wild; assay type: in vivo
Summary of the method: as §1

[4] = system: oilseed rape (Brassica napus); assay: Test D pre-/postemergence: oilseed rape; assay type: in vivo
Summary of the method: as §1

[5] = system: bluegrass (annual bluegrass, Poa annua); assay: Test D pre-/postemergence: bluegrass; assay type: in vivo
Summary of the method: as §1

[6] = system: ryegrass, Italian (Italian ryegrass, Lolium multiflorum); assay: Test F pre-/postemergence: ryegrass, Italian; assay type: in vivo; details: Preemergence
Summary of the method: as §2

[7] = system: nutsedge, yellow (yellow nutsedge, Cyperus esculentus); assay: Test F pre-/postemergence: nutsedge, yellow; assay type: in vivo; details: Preemergence
Summary of the method: as §2

[8] = system: blackgrass (Alopecurus myosuroides); assay: Test D pre-/postemergence: blackgrass; assay type: in vivo
Summary of the method: as §1

[9] = Postemergence, 31 g ai/ha, scale 0 to 100 (0 no effect, 100 complete control)
[10] = Postemergence, 62 g ai/ha, scale 0 to 100 (0 no effect, 100 complete control)
[11] = Postemergence, 125 g ai/ha, scale 0 to 100, 0 no effect, 100 complete control
[12] = Postemergence, 16 g ai/ha, scale 0 to 100
[13] = Preemergence, 16 g ai/ha, scale 0 to 100, 0 no effect, 100 complete control
[14] = Preemergence, 31 g ai/ha, scale 0 to 100, 0 no effect, 100 complete control
[15] = Preemergence, 62 g ai/ha, scale 0 to 100
[16] = Preemergence, 125 g ai/ha, scale 0 to 100
[17] = 16 g ai/ha, scale 0 to 100, 0 no effect, 100 complete control
[18] = 31 g ai/ha, scale 0 to 100, 0 no effect, 100 complete control

CCOCc1nn(-c2ccc(F)cc2)nc1Oc1ccnc(C(F)(F)F)c1 [Compound 163]
100: Plant response rating, Waterhemp (Waterhemp; 125 g ai/ha)

Cc1nn(-c2ccc(C(F)(F)F)c(F)c2)nc1Oc1ccnc(C(F)(F)F)c1 [Compound 148]
65: Plant response rating, Oat, Wild [1, 16] | Plant response rating: Blackgrass [8, 11]
70: Plant response rating, Foxtail, Green [2, 15] | Plant response rating: Bluegrass [5, 11]
25: Plant response rating: Bluegrass [5, 10]
55: Plant response rating: Oat, Wild [1, 11] | Plant response rating, Mustard, Wild [3, 12] | Plant response rating, Mustard, Wild [3, 15]
30: Plant response rating: Oat, Wild [1, 10] | Plant response rating, Oat, Wild [1, 15] | Plant response rating, Oilseed Rape [4, 12] | Plant response rating: Blackgrass [8, 10]
80: Plant response rating: Oilseed Rape [4, 10]
35: Plant response rating: Oilseed Rape [4, 9] | Plant response rating, Nutsedge, Yellow ([7]; 250 g ai/ha, scale 0 to 100)
95: Plant response rating, Mustard, Wild [3, 16] | Plant response rating, Ryegrass, Italian ([6]; 125 g ai/ha, scale 0 to 100)
0: Plant response rating, Corn (corn (Zea mays); [17]) | Plant response rating, Corn (corn (Zea mays); [18]) | Plant response rating, Corn (corn (Zea mays); 62 g ai/ha, scale 0 to 100) | Plant response rating, Corn (corn (Zea mays); 125 g ai/ha, scale 0 to 100) | Plant response rating, Oilseed Rape [4, 14] | Plant response rating, Bluegrass [5, 13] | Plant response rating, Ryegrass, Italian [6, 17] | Plant response rating, Ryegrass, Italian [6, 18] | Plant response rating, Nutsedge, Yellow [7, 17] | Plant response rating, Nutsedge, Yellow [7, 18] | Plant response rating, Blackgrass [8, 13]
60: Plant response rating: Foxtail, Green [2, 11] | Plant response rating, Bluegrass [5, 15]
20: Plant response rating, Oat, Wild [1, 14] | Plant response rating, Mustard, Wild [3, 13] | Plant response rating, Oilseed Rape [4, 16] | Plant response rating, Nutsedge, Yellow ([7]; 125 g ai/ha, scale 0 to 100)
100: Plant response rating, Foxtail, Green [2, 16] | Plant response rating: Mustard, Wild [3, 9] | Plant response rating: Mustard, Wild [3, 10] | Plant response rating: Mustard, Wild [3, 11] | Plant response rating: Oilseed Rape [4, 11] | Plant response rating, Ryegrass, Italian ([6]; 250 g ai/ha, scale 0 to 100)
15: Plant response rating: Oat, Wild [1, 9] | Plant response rating: Foxtail, Green [2, 9] | Plant response rating, Foxtail, Green [2, 12] | Plant response rating, Foxtail, Green [2, 13] | Plant response rating, Mustard, Wild [3, 14] | Plant response rating: Bluegrass [5, 9] | Plant response rating, Bluegrass [5, 14] | Plant response rating: Blackgrass [8, 9]
10: Plant response rating, Oilseed Rape [4, 15] | Plant response rating, Blackgrass [8, 12] | Plant response rating, Blackgrass [8, 14]
5: Plant response rating, Oat, Wild [1, 12] | Plant response rating, Oat, Wild [1, 13] | Plant response rating, Corn (corn (Zea mays); 250 g ai/ha, scale 0 to 100) | Plant response rating, Oilseed Rape [4, 13] | Plant response rating, Bluegrass [5, 12] | Plant response rating, Blackgrass [8, 15] | Plant response rating, Blackgrass [8, 16]
50: Plant response rating: Foxtail, Green [2, 10] | Plant response rating, Foxtail, Green [2, 14] | Plant response rating, Bluegrass [5, 16]

FCc1nn(-c2ccc(F)cc2)nc1Oc1ccnc(C(F)(F)F)c1 [Compound 160]
100: Plant response rating, Waterhemp (Waterhemp; 125 g ai/ha)

CCc1nn(-c2ccc(F)cc2)nc1Cc1ccnc(C(F)(F)F)c1 [Compound 154]
100: Plant response rating, Waterhemp (Waterhemp; 125 g ai/ha) | Plant response rating, Ryegrass, Italian ([6]; 250 g ai/ha, scale 0 to 100)
70: Plant response rating, Ryegrass, Italian ([6]; 125 g ai/ha, scale 0 to 100)
0: Plant response rating, Corn (corn (Zea mays); [17]) | Plant response rating, Corn (corn (Zea mays); [18]) | Plant response rating, Corn (corn (Zea mays); 62 g ai/ha, scale 0 to 100) | Plant response rating, Ryegrass, Italian [6, 17] | Plant response rating, Ryegrass, Italian [6, 18] | Plant response rating, Nutsedge, Yellow [7, 17] | Plant response rating, Nutsedge, Yellow [7, 18] | Plant response rating, Nutsedge, Yellow ([7]; 125 g ai/ha, scale 0 to 100) | Plant response rating, Nutsedge, Yellow ([7]; 250 g ai/ha, scale 0 to 100)
5: Plant response rating, Corn (corn (Zea mays); 125 g ai/ha, scale 0 to 100) | Plant response rating, Corn (corn (Zea mays); 250 g ai/ha, scale 0 to 100)

CCc1nn(-c2ccc(C(F)(F)F)cc2)nc1Cc1ccnc(C(F)(F)F)c1 [Compound 155]
30: Plant response rating, Nutsedge, Yellow ([7]; 250 g ai/ha, scale 0 to 100)
20: Plant response rating: Oat, Wild [1, 9] | Plant response rating, Foxtail, Green [2, 12] | Plant response rating, Foxtail, Green [2, 13] | Plant response rating, Bluegrass [5, 12] | Plant response rating, Blackgrass [8, 15]
25: Plant response rating, Nutsedge, Yellow ([7]; 125 g ai/ha, scale 0 to 100)
50: Plant response rating, Oat, Wild [1, 14] | Plant response rating: Blackgrass [8, 9]
80: Plant response rating: Foxtail, Green [2, 11] | Plant response rating, Mustard, Wild [3, 12]
95: Plant response rating, Ryegrass, Italian ([6]; 250 g ai/ha, scale 0 to 100)
5: Plant response rating, Oat, Wild [1, 13] | Plant response rating, Oilseed Rape [4, 14] | Plant response rating, Blackgrass [8, 12] | Plant response rating, Blackgrass [8, 13]
55: Plant response rating: Oat, Wild [1, 10] | Plant response rating, Mustard, Wild [3, 13] | Plant response rating, Mustard, Wild [3, 14]
10: Plant response rating, Oat, Wild [1, 12] | Plant response rating, Corn (corn (Zea mays); 62 g ai/ha, scale 0 to 100) | Plant response rating, Blackgrass [8, 14]
100: Plant response rating, Foxtail, Green [2, 16] | Plant response rating, Waterhemp (Waterhemp; 125 g ai/ha) | Plant response rating: Mustard, Wild [3, 9] | Plant response rating: Mustard, Wild [3, 10] | Plant response rating: Mustard, Wild [3, 11] | Plant response rating, Mustard, Wild [3, 15] | Plant response rating, Mustard, Wild [3, 16] | Plant response rating: Oilseed Rape [4, 9] | Plant response rating: Oilseed Rape [4, 10] | Plant response rating: Oilseed Rape [4, 11] | Plant response rating, Oilseed Rape [4, 15] | Plant response rating, Oilseed Rape [4, 16]
90: Plant response rating: Bluegrass [5, 11]
70: Plant response rating: Foxtail, Green [2, 10] | Plant response rating, Blackgrass [8, 16]
35: Plant response rating: Bluegrass [5, 9]
75: Plant response rating: Oat, Wild [1, 11] | Plant response rating: Bluegrass [5, 10]
15: Plant response rating, Oat, Wild [1, 15] | Plant response rating: Foxtail, Green [2, 9] | Plant response rating, Corn (corn (Zea mays); 125 g ai/ha, scale 0 to 100) | Plant response rating, Corn (corn (Zea mays); 250 g ai/ha, scale 0 to 100) | Plant response rating, Bluegrass [5, 13] | Plant response rating, Bluegrass [5, 14]
85: Plant response rating, Foxtail, Green [2, 15] | Plant response rating, Oilseed Rape [4, 12] | Plant response rating, Bluegrass [5, 16] | Plant response rating, Ryegrass, Italian ([6]; 125 g ai/ha, scale 0 to 100) | Plant response rating: Blackgrass [8, 11]
65: Plant response rating, Foxtail, Green [2, 14]
0: Plant response rating, Oilseed Rape [4, 13]
60: Plant response rating, Oat, Wild [1, 16] | Plant response rating, Bluegrass [5, 15] | Plant response rating: Blackgrass [8, 10]

CCOc1nn(-c2ccc(Cl)cc2)nc1Cc1ccnc(C(F)(F)F)c1 [Compound 188]
100: Plant response rating, Waterhemp (Waterhemp; 125 g ai/ha) | Plant response rating, Waterhemp (Waterhemp; 250 g ai/ha)

Cc1nn(-c2ccc(F)c(C(F)(F)F)c2)nc1Cc1ccnc(C(F)(F)F)c1 [Compound 156]
25: Plant response rating, Oat, Wild [1, 15] | Plant response rating: Foxtail, Green [2, 9] | Plant response rating: Foxtail, Green [2, 10]
80: Plant response rating: Bluegrass [5, 11]
100: Plant response rating, Foxtail, Green [2, 16] | Plant response rating, Waterhemp (Waterhemp; 125 g ai/ha) | Plant response rating: Mustard, Wild [3, 10] | Plant response rating: Mustard, Wild [3, 11] | Plant response rating, Mustard, Wild [3, 12] | Plant response rating, Mustard, Wild [3, 16] | Plant response rating: Oilseed Rape [4, 9] | Plant response rating: Oilseed Rape [4, 10] | Plant response rating: Oilseed Rape [4, 11] | Plant response rating, Oilseed Rape [4, 12] | Plant response rating, Oilseed Rape [4, 16] | Plant response rating, Bluegrass [5, 16]
10: Plant response rating, Oat, Wild [1, 12] | Plant response rating, Oat, Wild [1, 14] | Plant response rating, Foxtail, Green [2, 12] | Plant response rating, Foxtail, Green [2, 14] | Plant response rating, Mustard, Wild [3, 13] | Plant response rating, Blackgrass [8, 12]
5: Plant response rating, Oat, Wild [1, 13] | Plant response rating, Foxtail, Green [2, 13] | Plant response rating, Bluegrass [5, 13] | Plant response rating, Bluegrass [5, 14] | Plant response rating, Blackgrass [8, 14]
15: Plant response rating: Oat, Wild [1, 9] | Plant response rating, Bluegrass [5, 12] | Plant response rating: Blackgrass [8, 9] | Plant response rating, Blackgrass [8, 15]
85: Plant response rating, Mustard, Wild [3, 14] | Plant response rating, Oilseed Rape [4, 15]
95: Plant response rating: Mustard, Wild [3, 9] | Plant response rating, Mustard, Wild [3, 15]
90: Plant response rating, Oat, Wild [1, 16]
70: Plant response rating: Bluegrass [5, 10] | Plant response rating, Blackgrass [8, 16]
65: Plant response rating: Oat, Wild [1, 11] | Plant response rating: Foxtail, Green [2, 11] | Plant response rating: Bluegrass [5, 9]
20: Plant response rating: Oat, Wild [1, 10]
40: Plant response rating, Bluegrass [5, 15]
0: Plant response rating, Oilseed Rape [4, 13] | Plant response rating, Oilseed Rape [4, 14] | Plant response rating, Blackgrass [8, 13]
35: Plant response rating: Blackgrass [8, 10]
60: Plant response rating: Blackgrass [8, 11]
30: Plant response rating, Foxtail, Green [2, 15]
